Measured values reported in US20220267300A1 (NodThera Limited, priority 2019, published 2022).

system: IL-1β release upon NLRP3 activation in peripheral blood mononuclear cells (PBMC); experiment: PBMC IC50 determination assay (inhibition of IL-1β release); format: cell-based; conditions: Homo sapiens; IL-1β release from LPS-primed PBMC stimulated with ATP (5 mM) or nigericin (10 μM); ELISA or HTRF; corresponding sodium salts evaluated
Description: The compounds of the present disclosure were tested for their inhibitory activity against IL-1β release upon NLRP3 activation in peripheral blood mononuclear cells (PBMC).
Protocol A. PBMC were isolated from buffy coats by density gradient centrifugation on Histopaque-1077 (Sigma, cat no. 10771). Isolated cells were seeded into the wells of a 96-well plate and incubated for 3 h with lipopolysaccharide (LPS). Following medium exchange, the compounds of the present disclosure were added (a single compound per well) and the cells were incubated for 30 min. Next, the cells were stimulated either with ATP (5 mM) or nigericin (10 μM) for 1 h and the cell culture media from the wells were collected for further analysis.
The release of IL-1β into the media was determined by a quantitative detection of IL-1β in the media using an IL-1β enzyme-linked immunosorbent assay (ELISA) Ready-SET-Go!, eBioscience cat. No. 88-7261-88. Briefly, in a first step, high affinity binding plates (Corning, Costar 9018 or NUNC Maxisorp Cat No. 44-2404) were coated overnight at 4° C. with specific capture antibody included in the kit (anti-human IL-1β ref. 14-7018-68). Subsequently, plates were blocked with blocking buffer for 1 h at room temperature (rt) and after washing with a buffer (PBS with 0.05% Tween-20) incubated with protein standard and culture media. After 2 h of incubation at rt, plates were washed and incubated with biotinylated detection antibody included in the kit (anti-human IL-1β Biotin ref. 33-7110-68) for 1 h at rt. Plates were washed and incubated with HRP-streptavidin for 30 min at rt and washed again. The signal was developed after addition of 3,3′,5,5′-tetramethylbenzidine-peroxidase (TMB) until colour appeared and the reaction was stopped by 2 M H2SO4. A microplate spectrophotometer (BioTek) was used to detect signals with 450 nm. The detection range of IL-1β ELISA was 2-150 ng/ml.
Protocol B. PBMC were isolated from buffy coats by density gradient centrifugation on Histopaque-1077 (Sigma, cat no. 10771). Isolated cells were seeded into the wells (280,000 cells/well) of a 96-well plate and incubated for 3 h with lipopolysaccharide (LPS, 1 μg/ml diluted 1000× from a 1 mg/ml stock solution). The compounds of the present disclosure were added (a single compound per well) and the cells were incubated for 30 min. Next, the cells were stimulated with ATP (5 mM final concentration diluted 20× from a 100 mM stock solution) for 1 h and the cell culture media from the wells were collected for further analysis.
The release of IL-1β into the media was determined by quantitative detection of IL-1β in the media using HTRF®, CisBio cat. No. 62HIL1BPEH. Briefly, cell culture supernatant were dispensed directly into the assay plate containing antibodies labelled with the HTRF® donor and acceptor. A microplate spectrophotometer (BMG) was used to detect signals at 655 nm and 620 nm. The detection range of IL-1β HTRF® was 39-6500 pg/ml.

Compound | IC50 [µM]
CC(C)c1cc(F)cc(C(C)C)c1CC(=O)NS(=O)(=O)N(c1cnn(C)c1)C1CCCN(C)C1 (stereo not drawn) [Example 1, 2-[4-Fluoro-2,6-bis(propan-2-yl)phenyl]-N-[(1-methyl-1H-pyrazol-4-yl)(1-methylpiperidin-3-yl)sulfamoyl]acetamide] | 10 to 50
Cn1cc(N(CCN)S(=O)(=O)NC(=O)Cc2c3c(cc4c2CCC4)CCC3)cn1 [Example 22, N-[(2-Aminoethyl)(1-methyl-1H-pyrazol-4-yl)sulfamoyl]-2-(1,2,3,5,6,7-hexahydro-s-indacen-4-yl)acetamide] | 10 to 50
CN1CCC[C@H]1CN(c1cnn(C)c1)S(=O)(=O)NC(=O)Cc1cc(C(C)(C)C)cc(C(C)(C)C)c1 [Example 52] | ≥ 50
Cn1cc(N(C2CCCNC2)S(=O)(=O)NC(=O)Cc2c3c(cc4c2CCC4)CCC3)cn1 (stereo not drawn) [Example 20, 2-(1,2,3,5,6,7-Hexahydro-s-indacen-4-yl)-N-[(1-methyl-1H-pyrazol-4-yl)(piperidin-3-yl)sulfamoyl]acetamide] | 1 to 3
Cn1cc(N(CCCNC(=O)OCc2ccccc2)S(=O)(=O)NC(=O)Cc2c3c(cc4c2CCC4)CCC3)cn1 [Example 27, Benzyl N-[3-[[2-(1,2,3,5,6,7-hexahydro-s-indacen-4-yl)acetyl]sulfamoyl-(1-methylpyrazol-4-yl)amino]propyl]carbamate] | 1 to 3
CN1CCC[C@@H]1CN(c1cnn(C)c1)S(=O)(=O)NC(=O)Cc1cc(C(C)(C)C)cc(C(C)(C)C)c1 [Example 54] | 10 to 50
Cn1cc(N(CCNCC(F)F)S(=O)(=O)NC(=O)Cc2c3c(cc4c2CCC4)CCC3)cn1 [Example 24, N-({2-[(2,2-Difluoroethyl)amino]ethyl}(1-methyl-1H-pyrazol-4-yl)sulfamoyl)-2-(1,2,3,5,6,7-hexahydro-s-indacen-4-yl)acetamide] | < 1
CC(C)c1ccc(Cl)c(C(C)C)c1CC(=O)NS(=O)(=O)N(C[C@@H]1CCCN1C)c1cnn(C)c1 [Example 12, 2-[3-Chloro-2,6-bis(propan-2-yl)phenyl]-N-[(1-methyl-1H-pyrazol-4-yl)({[(2S)-1-methylpyrrolidin-2-yl]methyl})sulfamoyl]acetamide] | 3 to 10
CC(C)c1cc(CC(=O)NS(=O)(=O)N(C[C@@H]2CCCN2C)c2cnn(C)c2)cc(C(C)C)c1Cl [Example 55] | 10 to 50
Cc1cc(CC(=O)NS(=O)(=O)N(c2cnn(C)c2)C2CCCN(C)C2)cc(C(F)(F)F)c1 (stereo not drawn) [Example 2, N-[(1-Methyl-1H-pyrazol-4-yl)(1-methylpiperidin-3-yl)sulfamoyl]-2-[3-methyl-5-(trifluoromethyl)phenyl]acetamide] | 10 to 50
CN1CCC[C@H]1CN(c1cnn(C)c1)S(=O)(=O)NC(=O)Cc1ccc(C(F)(F)F)cc1Cl [Example 37] | ≥ 50
CN(CCN(c1cnn(C)c1)S(=O)(=O)NC(=O)Cc1c2c(cc3c1CCC3)CCC2)C(=O)OCc1ccccc1 [Example 25, Benzyl N-[2-({[2-(1,2,3,5,6,7-hexahydro-s-indacen-4-yl)acetamido]sulfonyl}(1-methyl-1H-pyrazol-4-yl)amino)ethyl]-N-methylcarbamate] | 3 to 10
CCc1cc(CC(=O)NS(=O)(=O)N(c2cnn(C)c2)C2CCCN(C)C2)cc(C(F)(F)F)c1 (stereo not drawn) [Example 16, 2-[3-Ethyl-5-(trifluoromethyl)phenyl]-N-[(1-methyl-1H-pyrazol-4-yl)(1-methylpiperidin-3-yl)sulfamoyl]acetamide] | 3 to 10
Cc1noc(N(C2CCCN(C)C2)S(=O)(=O)NC(=O)Cc2cc(C(C)C)cc(C(C)C)c2)c1C (stereo not drawn) [Example 7, 2-[3,5-Bis(propan-2-yl)phenyl]-N-[(3,4-dimethyl-1,2-oxazol-5-yl)(1-methylpiperidin-3-yl)sulfamoyl]acetamide] | < 1
CN1CCCC(N(c2cnn(C)c2)S(=O)(=O)NC(=O)Cc2cc(Cl)cc(C(F)(F)F)c2)C1 (stereo not drawn) [Example 4, 2-[3-Chloro-5-(trifluoromethyl)phenyl]-N-[(1-methyl-1H-pyrazol-4-yl)(1-methylpiperidin-3-yl)sulfamoyl]acetamide] | 10 to 50
CC(C)c1cc(CC(=O)NS(=O)(=O)N(C[C@@H]2CCCN2C)c2cnn(C)c2)cc(C(C)C)c1 [Example 5, 2-[3,5-Bis(propan-2-yl)phenyl]-N-[(1-methyl-1H-pyrazol-4-yl)({[(2S)-1-methylpyrrolidin-2-yl]methyl})sulfamoyl]acetamide] | < 1
COc1cc(-c2cc(F)cc(C(C)C)c2CC(=O)NS(=O)(=O)N(c2cnn(C)c2)C2CCCN(C)C2)ccn1 (stereo not drawn) [Example 28, 2-[4-Fluoro-2-isopropyl-6-(2-methoxy-4-pyridyl)phenyl]-N-[(1-methyl-3-piperidyl)-(1-methylpyrazol-4-yl)sulfamoyl]acetamide] | 3 to 10

Compound | IC50 [µM]
CC(C)c1cc(CC(=O)N=S(N)(=O)N(c2cnn(C)c2)C2CCCN(C)C2)cc(C(C)C)c1 (stereo not drawn) [Example 41] | 3 to 10
CN1CCCC(N(c2cnn(C)c2)S(N)(=O)=NC(=O)Cc2c3c(cc4c2CCC4)CCC3)C1 (stereo not drawn) [Example 13, N-{Amino[(1-methyl-1H-pyrazol-4-yl)(1-methylpiperidin-3-yl)amino]oxo-lambda6-sulfanylidene}-2-(1,2,3,5,6,7-hexahydro-s-indacen-4-yl)acetamide] | 3 to 10
CC(C)c1cc(CC(=O)NS(=O)(=O)N(CC2CCCO2)c2cnn(C)c2)cc(C(C)C)c1 (stereo not drawn) [Example 38] | 10 to 50
CC(C)c1cc(CC(=O)NS(=O)(=O)N(C[C@H]2C[C@@H](F)CN2C)c2cnn(C)c2)cc(C(C)C)c1 [Example 39] | ≥ 50
CC(C)c1cc(F)cc(C(C)C)c1CC(=O)NS(=O)(=O)N(c1cnn(C)c1)C1CCOCC1 [Example 30] | ≥ 50
CN1CCCC(N(c2cnn(C)c2)S(=O)(=O)NC(=O)Cc2c3c(cc4c2CCC4)CCC3)C1 (stereo not drawn) [Example 17, 2-(1,2,3,5,6,7-Hexahydro-s-indacen-4-yl)-N-[(1-methyl-1H-pyrazol-4-yl)(1-methylpiperidin-3-yl)sulfamoyl]acetamide] | < 1
Cn1cc(N(CCCN)S(=O)(=O)NC(=O)Cc2c3c(cc4c2CCC4)CCC3)cn1 [Example 34] | ≥ 50
CN(C)CCN(c1cnn(C)c1)S(=O)(=O)NC(=O)Cc1c2c(cc3c1CCC3)CCC2 [Example 18, N-{[2-(Dimethylamino)ethyl](1-methyl-1H-pyrazol-4-yl)sulfamoyl}-2-(1,2,3,5,6,7-hexahydro-s-indacen-4-yl)acetamide] | 1 to 3
Cn1cc(N(CCNC(=O)OCc2ccccc2)S(=O)(=O)NC(=O)Cc2c3c(cc4c2CCC4)CCC3)cn1 [Example 21] | 3 to 10
CN1CCC[C@H]1CN(c1cnn(C)c1)S(=O)(=O)NC(=O)Cc1c2c(cc3c1CCC3)CCC2 [Example 11, 2-(1,2,3,5,6,7-Hexahydro-s-indacen-4-yl)-N-[(1-methyl-1H-pyrazol-4-yl)({[(2S)-1-methylpyrrolidin-2-yl]methyl})sulfamoyl]acetamide] | < 1
CC(C)c1cc(F)cc(C(C)C)c1CC(=O)NS(=O)(=O)N(c1cnn(C)c1)C1CCN(C)CC1 [Example 31] | ≥ 50
CN1CCCC(N(c2cnn(C)c2)S(=O)(=O)NC(=O)Cc2cc(C(F)(F)F)cc(C(F)(F)F)c2)C1 (stereo not drawn) [Example 6, 2-[3,5-Bis(trifluoromethyl)phenyl]-N-[(1-methyl-1H-pyrazol-4-yl)(1-methylpiperidin-3-yl)sulfamoyl]acetamide] | < 1
CC(=O)N(C)CCN(c1cnn(C)c1)S(=O)(=O)NC(=O)Cc1c2c(cc3c1CCC3)CCC2 [Example 26, 2-(1,2,3,5,6,7-Hexahydro-s-indacen-4-yl)-N-[(1-methyl-1H-pyrazol-4-yl)[2-(N-methylacetamido)ethyl]sulfamoyl]acetamide] | 3 to 10
CN1CCCC(N(c2cnn(C)c2)S(=O)(=O)NC(=O)Cc2cc(Cl)cc(Cl)c2)C1 (stereo not drawn) [Example 33] | 10 to 50
CC(C)c1cc(CC(=O)NS(=O)(=O)N(c2cnn(C)c2)C2CCCN(C)C2)c(C(C)C)s1 (stereo not drawn) [Example 14, 2-[2,5-Bis(propan-2-yl)thiophen-3-yl]-N-[(1-methyl-1H-pyrazol-4-yl)(1-methylpiperidin-3-yl)sulfamoyl]acetamide] | < 1
CC(C)c1cccc(CC(=O)NS(=O)(=O)N(c2cnn(C)c2)C2CCCN(C)C2)c1 (stereo not drawn) [Example 53] | ≥ 50
